The values below come from DBAASP.

≈ marks a conversion by molar mass, not a printed value.

Some test systems named below: Escherichia coli UB1005; Aspergillus fumigatus; Candida albicans 17-88; Candida albicans; Candida dubliniensis; Candida glabrata; Candida krusei; Candida parapsilosis; Candida tropicalis; Cutibacterium acnes; Debaryomyces hansenii; Enterobacter cloacae; Kluyveromyces lactis; Staphylococcus aureus MR; Staphylococcus aureus.
Assay in all cases: ≥ marks a high value that may be exact or a test limit, other limits are often not marked, values filed in µg/mL are converted to µM
Assay [1] has as its system Bacillus subtilis CMCC 63501.
Assay [2] has as its system Pseudomonas aeruginosa ATCC 27853.
Assay [3] concerns Salmonella enterica subsp. enterica serovar Pullorum C79-13.
Assay [4] relates to Salmonella typhimurium ATCC 7731.
Assay [5] relates to Staphylococcus aureus ATCC 29213.
Assay [6] deals with Staphylococcus aureus ATCC 43300.
In assay [7] the test system is Staphylococcus epidermidis ATCC 12228.
Assay [8] concerns Acinetobacter baumannii ATCC 17978.
Assay [9] has as its system Aspergillus flavus ATCC MYA-3651.
Assay [10] deals with Candida albicans NRRL Y-326.
Assay [11] deals with Candida krusei NRRL Y-27803.
The subject of assay [12] is Candida parapsilosis NRRL Y-1761.
Assay [13] relates to Cutibacterium acnes ATCC 11827.
Assay [14] has as its system Cutibacterium acnes ATCC 6919.
Assay [15] relates to Fusarium solani NRRL 28548.
Assay [16] deals with Klebsiella pneumoniae ATCC 10031.
Assay [17] deals with Lichtheimia corymbifera NRRL 6251.
Assay [18] concerns Mucor circinelloides NRRL 3631.
Assay [19] concerns Pseudomonas aeruginosa ATCC 19660.
The test system of assay [20] is Staphylococcus aureus ATCC 33592.
The subject of assay [21] is Staphylococcus epidermidis ATCC 51625.
The subject of assay [22] is Bacillus subtilis KCTC 3068.
The subject of assay [23] is Enterococcus faecium ATCC 51559.
In assay [24] the test system is Escherichia coli KCTC 1682.
For assay [25], the system named is Pseudomonas aeruginosa CCARM 2095.
In assay [26] the test system is Pseudomonas aeruginosa KCTC 1637.
Assay [27] deals with Salmonella typhimurium KCTC 1926.
The test system of assay [28] is Staphylococcus aureus CCARM 3089.
For assay [29], the system named is Staphylococcus aureus CCARM 3090.
The test system of assay [30] is Staphylococcus aureus CCARM 3095.
For assay [31], the system named is Staphylococcus aureus KCTC 1621.
The subject of assay [32] is Staphylococcus epidermidis KCTC 1917.
Assay [33] concerns Acinetobacter baumannii KCTC 2508.
For assay [34], the system named is Bacillus subtilis KCTC 2217.

By MIC is commonly meant the lowest concentration that inhibits growth of the organism. A higher MIC goes with a need for much substance. Turning to `CC(C)C[C@H](NC(=O)[C@H](CCCCN)NC(=O)[C@H](CCCCN)NC(=O)[C@H](C)NC(=O)[C@@H](NC(=O)[C@H](CCCCN)NC(=O)[C@H](CO)NC(=O)[C@H](CC(C)C)NC(=O)[C@H](Cc1c[nH]c2ccccc12)NC(=O)[C@H](CC(C)C)NC(=O)[C@H](CCCCN)NC(=O)[C@H](CCCCN)NC(=O)[C@H](C)NC(=O)[C@@H](NC(=O)[C@H](CCCCN)NC(=O)[C@H](CO)NC(=O)[C@H](CC(C)C)NC(=O)[C@H](Cc1c[nH]c2ccccc12)NC(=O)[C@H](CC(C)C)NC(=O)[C@H](CCCCN)NC(=O)[C@H](CCCCN)NC(=O)[C@H](C)NC(=O)[C@@H](NC(=O)[C@H](CCCCN)NC(=O)[C@H](CO)NC(=O)[C@H](CC(C)C)NC(=O)[C@@H](N)Cc1c[nH]c2ccccc12)[C@@H](C)O)[C@@H](C)O)[C@@H](C)O)C(N)=O` [WLSKTAKKLWLSKTAKKLWLSKTAKKL], the MIC in [1] is 8 µM (≈ 25.5 µg/mL); with Escherichia coli UB1005, 2 µM (≈ 6.37 µg/mL); in [2], 2 µM (≈ 6.37 µg/mL); in [3], 2 µM (≈ 6.37 µg/mL); in [4] it was 8 µM (≈ 25.5 µg/mL); in [5], 32 µM (≈ 102 µg/mL). Moreover, the MIC in assay [6] and in [7] was 32 µM (≈ 102 µg/mL) each time.

Turning to `CC[C@H](C)[C@@H]1NC(=O)CNC(=O)[C@H](CCCCN)NC(=O)[C@H](Cc2ccc(O)cc2)NC(=O)[C@@H]2CSSC[C@H](NC1=O)C(=O)N[C@@H](Cc1ccc(O)cc1)C(=O)N[C@@H](CCCCN)C(=O)N[C@@H](CCCCN)C(=O)N[C@H](C(=O)N[C@@H](CCCCN)C(N)=O)CSSC[C@H](NC(=O)[C@H](Cc1c[nH]c3ccccc13)NC(=O)[C@@H](N)CCCN=C(N)N)C(=O)N[C@@H](Cc1ccccc1)C(=O)N[C@@H](CCCCN)C(=O)N[C@@H](C(C)C)C(=O)N2` [RWCFKVCYKGICYKKCK], the MIC in assay [8] was 3.71 µM (≈ 7.98 µg/mL); in [9], 29.7 µM (≈ 63.9 µg/mL); in the assay on Aspergillus fumigatus, 29.7 µM (≈ 63.9 µg/mL); against Candida albicans 17-88, 7.4 µM (≈ 15.9 µg/mL); in assay [10] it was 5.25 µM (≈ 11.3 µg/mL); in the assay on Candida albicans it was 10.5 µM (≈ 22.7 µg/mL). Further, the MIC turned out to be 3.7 µM (≈ 7.96 µg/mL) against Candida dubliniensis; 10.5 µM (≈ 22.7 µg/mL) in the assay with Candida glabrata; 10.5 µM (≈ 22.6 µg/mL) in assay [11]; 5.23 µM (≈ 11.3 µg/mL) with Candida krusei; 14.8 µM (≈ 31.9 µg/mL) in assay [12]; 15 µM (≈ 32.3 µg/mL) against Candida parapsilosis. In addition, the MIC in the assay with Candida tropicalis stood at 1.33 µM (≈ 2.86 µg/mL); in assay [13] it was 3.71 µM (≈ 7.98 µg/mL); in assay [14], 1.85 µM (≈ 3.99 µg/mL); with Cutibacterium acnes, 1.31 µM (≈ 2.82 µg/mL); with Debaryomyces hansenii, 7.4 µM (≈ 15.9 µg/mL); in the assay with Enterobacter cloacae, 3.71 µM (≈ 7.98 µg/mL). Further, the minimum inhibitory concentration (MIC) in assay [15] was 0.927 µM (≈ 2 µg/mL); in [16] it was 3.71 µM (≈ 7.98 µg/mL); with Kluyveromyces lactis, 1.9 µM (≈ 4.09 µg/mL); in assay [17] it was 0.927 µM (≈ 2 µg/mL); in assay [18], 29.7 µM (≈ 63.9 µg/mL); in assay [19], 3.71 µM (≈ 7.98 µg/mL). Besides, the MIC came out at 3.71 µM (≈ 7.98 µg/mL) in assay [2]; 1.85 µM (≈ 3.99 µg/mL) in assay [20]; 2.62 µM (≈ 5.64 µg/mL) against Staphylococcus aureus MR; 5.25 µM (≈ 11.3 µg/mL) with Staphylococcus aureus; 1.85 µM (≈ 3.99 µg/mL) in assay [21].

For `CC[C@H](C)[C@H](NC(=O)[C@@H](NC(=O)[C@H](Cc1cnc[nH]1)NC(=O)[C@H](CCCN=C(N)N)NC(=O)[C@H](C)NC(=O)[C@H](CCCN=C(N)N)NC(=O)[C@H](CC(C)C)NC(=O)[C@H](CO)NC(=O)[C@H](C)NC(=O)[C@H](CC(C)C)NC(=O)[C@@H](N)CC(N)=O)[C@@H](C)O)C(=O)N1CCC[C@H]1C(=O)N[C@@H](CCC(N)=O)C(=O)N[C@@H](CCCN=C(N)N)C(=O)N[C@@H](CCCCN)C(=O)N[C@@H](Cc1ccccc1)C(=O)NCC(=O)N[C@@H](CCCN=C(N)N)C(=O)N[C@@H](CCCN=C(N)N)C(=O)O` [NLASLRARHTIPQRKFGRR], the MIC was 6.3 µM (≈ 14.3 µg/mL) in [22]; ≥ 50 µM in assay [23]; 6.3 µM (≈ 14.3 µg/mL) in assay [24]; 25 µM (≈ 56.9 µg/mL) in assay [25]; 6.3 µM (≈ 14.3 µg/mL) in [26]; 6.3 µM (≈ 14.3 µg/mL) in assay [27]. The minimal inhibitory concentration (MIC) in assay [28] worked out at 12.5 µM (≈ 28.5 µg/mL); in [29] it was 25 µM (≈ 56.9 µg/mL); in assay [30], 25 µM (≈ 56.9 µg/mL); in assay [31] it was 12.5 µM (≈ 28.5 µg/mL); in assay [32] it was 6.3 µM (≈ 14.3 µg/mL).

On to `CC(C)C[C@H](NC(=O)[C@H](CC(C)C)NC(=O)[C@@H]1CCCN1C(=O)[C@H](CCCCN)NC(=O)[C@H](CCCCN)NC(=O)[C@H](CC(C)C)NC(=O)[C@H](CC(C)C)NC(=O)[C@H](CCCCN)NC(=O)[C@H](CCCCN)NC(=O)[C@H](Cc1c[nH]c2ccccc12)NC(=O)[C@@H](N)CCCCN)C(=O)N[C@@H](CCCCN)C(N)=O` [KWKKLLKKPLLK], for which the results for the minimum inhibitory concentration (MIC) in assay [33], in [34] and in [2] were 25 µM (≈ 38.1 µg/mL), 6.25 µM (≈ 9.51 µg/mL) and > 25 µM, respectively.
